The record followed here is article PMC10487430, “Dual Modulator of ASIC Channels and GABAA Receptors from Thyme Alters Fear-Related Hippocampal Activity” (International Journal of Molecular Sciences, 2023).

The target in one assay is T1, rat ASIC1a (rASIC1a) (Rattus norvegicus, UniProt P55926).
T1 construct: gene Asic1; homomeric rat ASIC1a expressed in Xenopus laevis oocytes
T1 sequence (P55926 1-526): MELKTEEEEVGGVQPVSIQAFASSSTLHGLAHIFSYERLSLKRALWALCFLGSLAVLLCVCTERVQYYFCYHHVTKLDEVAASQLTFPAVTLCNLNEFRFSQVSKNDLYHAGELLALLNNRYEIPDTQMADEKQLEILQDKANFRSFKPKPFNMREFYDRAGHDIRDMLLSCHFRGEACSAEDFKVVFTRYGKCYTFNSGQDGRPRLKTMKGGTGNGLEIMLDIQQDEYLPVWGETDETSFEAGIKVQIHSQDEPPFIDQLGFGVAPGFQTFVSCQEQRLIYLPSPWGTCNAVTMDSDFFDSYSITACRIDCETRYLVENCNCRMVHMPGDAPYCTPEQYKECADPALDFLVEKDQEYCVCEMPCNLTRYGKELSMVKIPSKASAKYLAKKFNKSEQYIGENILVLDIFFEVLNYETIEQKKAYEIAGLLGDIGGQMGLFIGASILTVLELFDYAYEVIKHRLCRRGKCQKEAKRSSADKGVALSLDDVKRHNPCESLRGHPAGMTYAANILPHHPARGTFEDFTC
Nature of the assay: two-electrode voltage clamp in Xenopus oocytes; inhibition of pH […].0-induced currents. The assay is classed as cell-based.

For another assay, the target named is T2, α1β2γ2 GABAA receptor (Mus musculus, UniProt P22723+P62812+P63137).
T2 construct: gene Gabra1; murine α1, β2, and γ2 GABAA subunits expressed in Xenopus laevis oocytes; with GABAA receptor β2 (Gabrb2) and γ2 (Gabrg2) subunits
Nature of the assay: two-electrode voltage clamp in Xenopus oocytes; potentiation of currents induced by […] GABA. The assay is classed as cell-based.

T2 sequence (P62812 28-455): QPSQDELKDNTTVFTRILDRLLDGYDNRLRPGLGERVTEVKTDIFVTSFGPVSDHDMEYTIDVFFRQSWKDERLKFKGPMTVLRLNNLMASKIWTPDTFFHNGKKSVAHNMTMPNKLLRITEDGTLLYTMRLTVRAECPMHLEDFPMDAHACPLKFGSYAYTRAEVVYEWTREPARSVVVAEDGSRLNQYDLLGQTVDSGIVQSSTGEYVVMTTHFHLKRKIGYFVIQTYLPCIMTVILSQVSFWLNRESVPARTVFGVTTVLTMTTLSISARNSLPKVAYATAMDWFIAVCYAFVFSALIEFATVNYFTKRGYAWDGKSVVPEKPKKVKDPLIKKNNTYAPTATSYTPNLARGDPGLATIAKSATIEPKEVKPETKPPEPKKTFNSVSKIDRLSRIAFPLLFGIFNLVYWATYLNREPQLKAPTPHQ
T2 sequence (P63137 26-512): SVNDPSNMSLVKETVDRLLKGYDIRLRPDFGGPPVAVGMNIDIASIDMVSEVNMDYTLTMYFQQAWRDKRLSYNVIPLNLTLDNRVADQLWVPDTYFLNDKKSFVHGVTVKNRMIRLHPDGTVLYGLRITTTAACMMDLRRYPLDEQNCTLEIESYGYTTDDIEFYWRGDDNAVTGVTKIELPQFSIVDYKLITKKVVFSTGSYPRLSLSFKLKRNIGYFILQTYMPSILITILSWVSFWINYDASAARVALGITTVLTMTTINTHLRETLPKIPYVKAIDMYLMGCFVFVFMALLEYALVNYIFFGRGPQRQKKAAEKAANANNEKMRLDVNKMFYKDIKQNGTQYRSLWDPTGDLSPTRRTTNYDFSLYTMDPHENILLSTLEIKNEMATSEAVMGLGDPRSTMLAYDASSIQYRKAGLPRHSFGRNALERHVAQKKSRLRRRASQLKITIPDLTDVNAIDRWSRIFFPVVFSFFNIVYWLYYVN
T2 sequence (P22723 39-474): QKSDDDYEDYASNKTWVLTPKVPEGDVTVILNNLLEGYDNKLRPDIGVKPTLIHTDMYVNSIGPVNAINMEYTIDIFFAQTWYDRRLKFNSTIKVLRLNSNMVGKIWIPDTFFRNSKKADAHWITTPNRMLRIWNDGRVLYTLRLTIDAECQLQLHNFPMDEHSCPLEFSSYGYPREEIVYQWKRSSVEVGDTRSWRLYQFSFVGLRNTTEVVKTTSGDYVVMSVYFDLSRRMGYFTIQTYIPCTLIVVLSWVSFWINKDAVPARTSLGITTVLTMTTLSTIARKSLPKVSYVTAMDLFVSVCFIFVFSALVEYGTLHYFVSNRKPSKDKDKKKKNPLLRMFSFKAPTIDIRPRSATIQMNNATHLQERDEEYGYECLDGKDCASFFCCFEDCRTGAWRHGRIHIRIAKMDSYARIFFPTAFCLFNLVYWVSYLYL

One may read the IC50 as the point on the concentration scale where inhibition reaches its midpoint. Higher therefore signals a need for much substance. Broadly, the EC50 is the concentration needed to bring the measured effect to its halfway point. On to `O=C(O)C[C@H](C(=O)O)[C@H](OC(=O)[C@@H]1C(C(=O)O[C@@H](C(=O)O)[C@@H](CC(=O)O)C(=O)O)=Cc2cc(O)c(O)cc2[C@H]1c1ccc(O)c(O)c1)C(=O)O` [sevanol], for which the half-maximal inhibitory concentration (IC50) against rat ASIC1a (rASIC1a) was 198 ± 19 µM. Also, the EC50 on α1β2γ2 GABAA receptor is 0.56 ± 0.04 µM.
